In patent US7329423B2, “Compositions comprising thylakoids useful in the modulation of inflammation process” (Purecell Technologies Inc., priority 2001, dated 2008):

Columns and labels:
[1] = tested on: TNBS-induced colonic damage in rat intestine; test: Potentiation of mesalamine in TNBS-stressed rat intestine (Experiment 11); assay type: in vivo; conditions: Wistar rats, mesalamine 57 mg/kg with or without extract 2 mg/kg in the intestinal lumen 24 and 48 h before TNBS
Procedure: Male Wistar rats (Charles River Laboratories, Montreal) were kept in individual cages, at 20° C. and 55% relative humidity with 12-h light/12-h dark cycle, in a facility that met the Canadian Council on Animal Care (C.C.A.C.) guidelines. The rats were subjected to a 24-hour starving period prior to inflammatory stress induction. Four groups of rats were treated in the following manner: • (Treatment-1) Non-stressed control (n=3); • (Treatment-2) 2,4,6-Trinitrobenzenesulfonic acid (inflammatory agent) in the intestinal lumen (n=3); • (Treatment-3) Mesalamine (5-aminosalicyclic acid; NSAID) (57 mg/kg) administered directly in the intestinal lumen 24 and 48 hours prior to administration of the stress agent (n=3) • (Treatment4) Thylakoid extract (0.05%) (2 mg/kg)+mesalamine (57 mg/kg) administered directly in the intestinal lumen 24 and 48 hours prior to administration of the stress agent (n=3). Twenty-four hours later, the rats were sacrificed and a 10 cm excision of the intestine was sampled.

[2] = tested on: TPA-induced inflammation of mouse ears; test: Potentiation of budesonide in TPA-induced mouse ear inflammation (Experiment 10); assay type: in vivo; conditions: BALB/C mice, 24 h
Procedure: Mice (BALB/C) were kept in individual cages, at 20° C. and 55% relative humidity with 12-h light/12-h dark cycle, in a facility that met the Canadian Council on Animal Care (C.C.A.C.) guidelines. The animals were subjected to an 18-hour starving period prior to treatments. […] of mice were treated in the following manner: • (Treatment-1) No application of cream (n=3); • (Treatment-2) Neutral base cream (n=3); • (Treatment-3) Budesonide (0.1%) in neutral base cream (n=3); • (Treatment-4) Budesonide (0.01%) in neutral base cream (n=3); • (Treatment-5) Budesonide (0.01%)+thylakoid extract (0.05%) in neutral base cream (n=3). All treatments were applied 4 and 8 hours following the inflammatory stress (post-treatment) at a dose of 2 μl/cm^2. Animals were kept in the dark for the duration of the treatments. Prior to treatment, mouse ears were subjected to an inflammatory stress by a topical application of phorbol 12-myristate 13-acetate (TPA) (Sigma Chemicals Co.). 20 μL of TPA (0.2 μg/μL) in an acetone solution was applied (Griswold et al., 1998). The right ear of each mouse was treated with TPA whereas the left ear served as the unstressed control. After 24 hours, the mice were sacrificed and a punch of 6 mm in diameter of both the left and right ears was sampled. Ear punch thickness was measured by an electronic digital caliper 0.01 mm (Traceable).

| Structure (SMILES) | macroscopic colonic damage score (scale 0-10) [1] | decrease of ear punch thickness ([2]; budesonide 0.01% in neutral base cream 4 and 8 h after TPA) [%] | decrease of ear punch thickness compared to the untreated control (Treatment-1) ([2]; budesonide 0.1% in neutral base cream 4 and 8 h after TPA) [%] |
| --- | --- | --- | --- |
| Nc1ccc(O)c(C(=O)O)c1 [mesalamine, 5-aminosalicyclic acid] | 4.0 |  |  |
| CCCC1O[C@@H]2C[C@H]3[C@@H]4CCC5=CC(=O)C=C[C@]5(C)[C@H]4[C@@H](O)C[C@]3(C)[C@]2(C(=O)CO)O1 (stereo partly drawn) [Budesonide, budesonide] |  | 32.6 | 58.2 |
